According to article PMC4061029, “A Stable and Reproducible Human Blood-Brain Barrier Model Derived from Hematopoietic Stem Cells” (PLoS ONE, 2014):

Experiments:
[1] = system: CD34+-derived ECs co-cultured with pericytes; assay: Cell viability of ECs under Wnt antagonist; format: cell-based, human; settings: co-culture with pericytes, 4 days
[2] = system: CD34+-derived ECs co-cultured with pericytes; assay: Abrogation of Wnt signaling: paracellular permeability of ECs co-cultured with pericytes; format: cell-based, human; settings: co-culture with pericytes, 4 days, 0.1 or 1 µM, luminal side
Procedure: Prior to the experiments, HEPES-buffered Ringer’s solution (in some cases EBM-2 medium) was added to empty wells of a 12-well plate (Costar). Filter inserts, containing confluent monolayers of CD34^+-ECs, were subsequently placed in the 12-well plate, filled with compound solution containing the fluorescent integrity marker Lucifer Yellow (20 µM; Life Technologies), and then placed on an orbital shaker. After 1 h, filter inserts were withdrawn from the receiver compartment. Aliquots from the donor solution were taken at the beginning and at the end of the experiments and the fluorescence was quantified. At least three inserts with cells and three without cells were tested in each permeability measurement. Fluorescence detection was carried out on a Synergy H1 multiplates reader (Biotek) using the following excitation/emission wavelength (nm) settings: 432/538; 490/516; 542/570 for Lucifer yellow, Fluorescein Na and Cy3-Human Serum Albumin and Human IgG respectively.
For Wnt signaling experiments, mono- and co-culture systems were used. […]
Figure 6 Evaluation of Wnt signaling in the induction of BBB properties in ECs. […] After 4 days of coculture, the paracellular permeability and cell organization were evaluated. (D) Fluorescence microscopy images showing the expression of ZO-1 in untreated ECs or ECs treated with XAV 939 (1 µM) for 4 days. […]

[3] = system: iPSC-derived ECs with astrocytes; set-up: method as in PMID 24561821; settings: cited from earlier work

Row | SMILES | cell viability [1] | paracellular permeability of the EC monolayer to lucifer yellow [2] | TEER of the BBB model [3]
1 | Oc1nc(-c2ccc(C(F)(F)F)cc2)nc2c1CSCC2 [XAV-939] | did not affect | increased | –
2 | CC1=C(/C=C/C(C)=C/C=C/C(C)=C/C(=O)O)C(C)(C)CCC1 [retinoic acid] | – | – | up to 5000 Ω×cm^2
